# Results taken from paper PMC5890937 (European journal of medicinal chemistry, 2017).
# Several values for one entry are separate records, joined by “and”; a condition that tells them apart may be missing. Identical values can stand only once.
# Key:
# HDAC6 [1] = target: T1, HDAC6 (Homo sapiens, UniProt Q9UBN7); assay: ELISA-based HDAC activity assay, HDAC6; assay type: biochemical; settings: for fold selectivity for HDAC6 and HDAC8 over HDAC1, 2, and 3 / HDAC6 selectivity over HDAC1, 2, and 3: from IC50 values; for isoform selectivity in single concentration screen (HDAC6 versus HDAC1, 2, 3): 1a-f at 0.75, 0.75, 2.5, 1.25, 2.5, and 5 μM, SAHA at 1 μM
# T1 sequence (Q9UBN7 1-1215): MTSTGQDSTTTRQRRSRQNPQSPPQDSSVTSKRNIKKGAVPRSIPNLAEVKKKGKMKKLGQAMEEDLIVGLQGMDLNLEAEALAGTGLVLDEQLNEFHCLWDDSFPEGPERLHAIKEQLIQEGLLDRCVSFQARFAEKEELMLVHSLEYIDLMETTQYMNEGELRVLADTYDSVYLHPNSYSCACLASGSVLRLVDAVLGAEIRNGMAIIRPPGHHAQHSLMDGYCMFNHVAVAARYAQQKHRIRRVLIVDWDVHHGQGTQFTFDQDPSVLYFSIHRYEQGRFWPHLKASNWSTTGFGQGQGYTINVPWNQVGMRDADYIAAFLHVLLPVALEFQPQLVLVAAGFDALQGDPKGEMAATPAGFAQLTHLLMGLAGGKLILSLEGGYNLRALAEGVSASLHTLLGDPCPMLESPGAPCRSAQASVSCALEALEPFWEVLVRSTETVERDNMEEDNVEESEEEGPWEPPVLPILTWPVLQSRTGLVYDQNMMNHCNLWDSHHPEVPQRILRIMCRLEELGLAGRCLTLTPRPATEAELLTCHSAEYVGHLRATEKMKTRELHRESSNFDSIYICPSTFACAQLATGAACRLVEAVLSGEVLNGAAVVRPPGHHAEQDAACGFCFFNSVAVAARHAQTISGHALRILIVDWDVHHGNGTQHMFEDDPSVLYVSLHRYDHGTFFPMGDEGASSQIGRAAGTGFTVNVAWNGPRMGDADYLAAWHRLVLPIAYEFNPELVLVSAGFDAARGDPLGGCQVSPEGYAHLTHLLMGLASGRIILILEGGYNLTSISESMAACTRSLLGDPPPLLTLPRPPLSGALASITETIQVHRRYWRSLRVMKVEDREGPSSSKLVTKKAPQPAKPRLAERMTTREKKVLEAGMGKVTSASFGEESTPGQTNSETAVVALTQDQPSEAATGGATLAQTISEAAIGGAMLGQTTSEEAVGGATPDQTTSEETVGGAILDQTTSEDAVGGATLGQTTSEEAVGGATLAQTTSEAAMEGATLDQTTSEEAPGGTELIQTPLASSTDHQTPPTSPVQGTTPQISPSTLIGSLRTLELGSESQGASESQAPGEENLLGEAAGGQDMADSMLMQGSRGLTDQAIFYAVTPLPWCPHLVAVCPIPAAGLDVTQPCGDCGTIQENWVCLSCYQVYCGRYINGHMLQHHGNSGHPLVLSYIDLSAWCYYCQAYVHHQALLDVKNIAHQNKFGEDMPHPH
# HDAC6 [2] = settings: cited from earlier work
# HDAC8 = settings: read-out: IC50 with HDAC8; cited from earlier work
# HeLa cell lysates = assay: Global HDAC inhibition with HeLa cell lysates; assay type: biochemical, human; settings: HeLa cell lysates IC50 relative to SAHA
# acetyl-α-tubulin (AcTub) = assay: In cellulo selectivity testing, western blot of acetyl-α-tubulin in U937 cells; assay type: cell-based, human; settings: SAHA 5 μM, 1f 20-60 μM, 18 hours
structure (smiles),measurement,setting,value
"O=C(CC[C@@H](CCCC(=O)Nc1ccccc1)Cc1ccccc1)NO [(R)-1f, (R)-4-benzyl-N^1-hydroxy-N^8-phenyloctanediamide]","fold selectivity for HDAC6 and HDAC8 over HDAC1, 2, and 3",HDAC6 [1],520- to 1300 fold
"O=C(CC[C@H](CCCC(=O)Nc1ccccc1)Cc1ccccc1)NO [(S)-1f, (S)-4-benzyl-N^1-hydroxy-N^8-phenyloctanediamide]","fold selectivity for HDAC6 and HDAC8 over HDAC1, 2, and 3",HDAC6 [1],240- to 540 fold
O=C(CCCC(CCC(=O)Nc1ccccc1)Cc1ccccc1)NO (centres unmarked) [C5-benzyl SAHA],HDAC6/8 selectivity,HDAC6 [2],8- to 21 fold
same,IC50,HDAC6 [2]; read-out: IC50 with HDAC6,270 nM
same,IC50,HDAC8,380 nM
"CC(CCCC(=O)Nc1ccccc1)CCC(=O)NO (centres unmarked) [Compound 1a, N^1-hydroxy-4-methyl-N^8-phenyloctanediamide]","isoform selectivity in single concentration screen (HDAC6 versus HDAC1, 2, 3)",HDAC6 [1],smallest difference in potency
same,fold less potent compared to SAHA,HeLa cell lysates,18 fold
"CCCCCCC(CCCC(=O)Nc1ccccc1)CCC(=O)NO (centres unmarked) [Compound 1d, 4-hexyl-N^1-hydroxy-N^8-phenyloctanediamide]","HDAC6 selectivity over HDAC1, 2, and 3",HDAC6 [1],at least 210 fold
same,"fold selectivity for HDAC6 and HDAC8 over HDAC1, 2, and 3",HDAC6 [1],170- to 480 fold and 210- to 480 fold
"O=C(CCC(CCCC(=O)Nc1ccccc1)Cc1ccccc1)NO (centres unmarked) [Compound 1f, 4-benzyl-N^1-hydroxy-N^8-phenyloctanediamide]","isoform selectivity in single concentration screen (HDAC6 versus HDAC1, 2, 3)",HDAC6 [1],greatest difference in potency
same,"HDAC6 selectivity over HDAC1, 2, and 3",HDAC6 [1],at least 210 fold
same,"fold selectivity for HDAC6 and HDAC8 over HDAC1, 2, and 3",HDAC6 [1],210- to 740 fold
same,levels of acetyl-α-tubulin (HDAC6 substrate),acetyl-α-tubulin (AcTub),dose-dependent increase
CCCC(CCC)C(=O)NO [Valpropylhydroxamic acid],"selectivity for HDAC6 and 8 against HDAC1, 2, and 3",HDAC6 [2],9-17 fold
